Like-named read-outs stand apart in the source and are kept apart here.
Assays:
[1] = test system: Panc-1 cells; assay: MTT tumor cell growth inhibition, Panc-1; assay type: cell-based; details: 48 h, read-out: Tumors growth-inhibitory activity (IC50) Panc-1
Experimental: (§1) Using MTT method to determine the growth inhibition activity of the matrine compounds on Lovo, MGC-803, Mia-paca2, HpeG-2, A549, k562, and Panc-1 cells in vitro. Logarithmic growth phase of Lovo, MGC-803, Mia-paca2, HpeG-2, A549, k562, Panc-1 cells were inoculated into 96-well plates (purchased from Institute of Biochemical Cells, Chinese Academy of Sciences, and cultured according to conventional tumor cell culture methods) at a density of 4×10^4/mL and 180 μL/well; after the cells adhered to the wall, 20 μL of drug solution was added to each well and matined the final drug concentrations were 0.1 μM, 1 μM, 10 μM, 50 μM, 100 μM respectively. After 48 h, 5 mg/mL MTT solution was added (20 μL/well) and maintained in a CO2 incubator for 3-4 h. After that, discarding the supernatant carefully, and DMSO was added (200 μL/well) when the residual liquid was air-dried, and shook for 0.5-1 h until the residual crystals was dissolved. The absorbance OD was measured at 492 nm by a microplate reader. GraphPad Prism 5 software was used to calculate the IC50 value.

[2] = test system: k562 cells; assay: MTT tumor cell growth inhibition, k562; assay type: cell-based; details: 48 h, read-out: Tumors growth-inhibitory activity (IC50) k562
Experimental: as §1

[3] = test system: Mia-paca2 cells; assay: MTT tumor cell growth inhibition, Mia-paca2; assay type: cell-based; details: read-out: Tumors growth-inhibitory activity (IC50) Mia-paca2
Experimental: as §1

[4] = test system: A549 cells; assay: MTT tumor cell growth inhibition, A549; assay type: cell-based; details: 48 h, read-out: Tumors growth-inhibitory activity (IC50) A549
Experimental: as §1

[5] = test system: HpeG-2 cells; assay: MTT tumor cell growth inhibition, HpeG-2; assay type: cell-based; details: 48 h, read-out: Tumors growth-inhibitory activity (IC50) HpeG-2
Experimental: as §1

[6] = test system: MGC-803 cells; assay: MTT tumor cell growth inhibition, MGC-803; assay type: cell-based; details: 48 h, read-out: Tumors growth-inhibitory activity (IC50) MGC-803
Experimental: as §1

[7] = test system: Lovo cells; assay: MTT tumor cell growth inhibition, Lovo; assay type: cell-based; details: 48 h, read-out: Tumors growth-inhibitory activity (IC50) Lovo
Experimental: as §1

[8] = test system: TNF-α; assay: TNF-α activity inhibiting assay (LPS-stimulated peripheral blood, ELISA); assay type: cell-based, human; details: compound 20 μM, LPS 10 ng/mL, 6 hours, diluted peripheral blood of healthy volunteers; for inhibition at 20 µM: Homo sapiens, read-out: TNF-α inhibition rate (%)
Experimental: Methods: Peripheral blood from healthy volunteers was collected with EDTA anticoagulant tubes. After being diluted 5-fold with 1640 medium (Gibco, USA), the blood was added to 96-well cell culture plates (Costar, USA) and then treated with 10 μL solution of the compound of general formula (I) of the present invention in DMSO (Sigma, USA), the final concentration of the compound was 20 μM with the final concentration of DMSO was 0.2%. After incubation for 60 minutes in an incubator at 37° C. under 5% CO2, 10 μL LPS (Sigma, USA) was added to the reaction system, and the final concentration was 10 ng/mL. After further culturing for 6 hours in the incubator at 37° C. under 5% CO2, the supernatant was collected. The content of TNF-α was determined by ELISA (BD Biosciences, USA). Absorbance was detected at OD450 nm with a microplate reader, with OD 650 nm as reference. The control, a solution containing 0.2% DMSO medium, was as 0% inhibition. Raw data and standard curves were recorded. The four-parameter drug inhibition curve was plotted by XL-fit software and the inhibition rate of each compound was calculated.

## Cc1cccc2c1C(=O)N(C1=CC[C@@H]3[C@H]4CCCN5CCC[C@@H](CN3C1=O)[C@@H]45)C2=O [GJD 24]
[1]
  IC50: 50 to 100 µM
[2]
  IC50: < 50 µM
[3]; 48 h
  IC50: 50 to 100 µM
[4]
  IC50: < 50 µM
[5]
  IC50: < 50 µM
[6]
  IC50: 50 to 100 µM
[7]
  IC50: < 50 µM

## O=C1c2cccc([N+](=O)[O-])c2C(=O)N1C1CC[C@@H]2[C@H]3CCCN4CCC[C@@H](CN2C1=O)[C@@H]34 (some centres unmarked) [GJD 05]
[8]
  inhibition at 20 µM: > 50%

## O=C1c2cccc(Cl)c2C(=O)N1C1CC[C@@H]2[C@H]3CCCN4CCC[C@@H](CN2C1=O)[C@@H]34 (some centres unmarked) [GJD 04]
[8]
  inhibition at 20 µM: > 50%

## O=C1[C@@H](N2C(=O)c3ccccc3C2=O)CC[C@@H]2[C@H]3CCCN4CCC[C@@H](CN12)[C@@H]34 [GJD 25]
[1]; Homo sapiens
  IC50: > 100 µM
[2]; Homo sapiens
  IC50: 50 to 100 µM
[3]; Homo sapiens, MIA PaCa-2, 48 h
  IC50: > 100 µM
[4]; Homo sapiens
  IC50: 50 to 100 µM
[5]
  IC50: 50 to 100 µM
[6]; Homo sapiens
  IC50: > 100 µM
[7]; Homo sapiens
  IC50: 50 to 100 µM

## Cc1cccc2c1CN(C1CC[C@@H]3[C@H]4CCCN5CCC[C@@H](CN3C1=O)[C@@H]45)C2=O (some centres unmarked) [GJD 38]
[8]
  TNF-α inhibition rate (%): >50%

## N#Cc1cccc2c1C(=O)N(C1CC[C@@H]3[C@H]4CCCN5CCC[C@@H](CN3C1=O)[C@@H]45)C2=O (some centres unmarked) [GJD 06]
[1]; Homo sapiens
  IC50: 50 to 100 µM
[2]; Homo sapiens
  IC50: 50 to 100 µM
[3]; Homo sapiens, MIA PaCa-2, 48 h
  IC50: 50 to 100 µM
[8]
  inhibition at 20 µM: > 50%
[4]; Homo sapiens
  IC50: 50 to 100 µM
[5]
  IC50: < 50 µM
[6]; Homo sapiens
  IC50: > 100 µM
[7]; Homo sapiens
  IC50: 50 to 100 µM

## Nc1ccc(S(=O)(=O)NC2=CC[C@@H]3[C@H]4CCCN5CCC[C@@H](CN3C2=O)[C@@H]45)cc1 [GJD 47]
[1]; Homo sapiens
  IC50: > 100 µM
[2]; Homo sapiens
  IC50: 50 to 100 µM
[3]; Homo sapiens, MIA PaCa-2, 48 h
  IC50: > 100 µM
[4]; Homo sapiens
  IC50: 50 to 100 µM
[5]
  IC50: 50 to 100 µM
[6]; Homo sapiens
  IC50: > 100 µM
[7]; Homo sapiens
  IC50: 50 to 100 µM

## O=C1c2ccccc2C(=O)N1C1=CC[C@@H]2[C@H]3CCCN4CCC[C@@H](CN2C1=O)[C@@H]34 [GJD 22]
[8]
  inhibition at 20 µM: > 50%

## C#Cc1cccc2c1C(=O)N(C1CC[C@@H]3[C@H]4CCCN5CCC[C@@H](CN3C1=O)[C@@H]45)C2=O (some centres unmarked) [GJD 11]
[8]
  inhibition at 20 µM: < 50%

## Nc1ccccc1C(=O)NC1CC[C@@H]2[C@H]3CCCN4CCC[C@@H](CN2C1=O)[C@@H]34 (some centres unmarked) [GJD 49]
[8]
  inhibition at 20 µM: > 50%

## Nc1ccc2c(c1)C(=O)N(C1CC[C@@H]3[C@H]4CCCN5CCC[C@@H](CN3C1=O)[C@@H]45)C2 (some centres unmarked) [GJD 41]
[8]
  inhibition at 20 µM: > 50%

## Cc1cccc2c1CN(C1CC[C@@H]3[C@H]4CCCN5CCC[C@H](CN3C1=O)[C@@H]45)C2=O (some centres unmarked) [GJD 44]
[8]
  inhibition at 20 µM: > 50%

## Nc1ccc2c(c1)C(=O)N(C1CC[C@@H]3[C@H]4CCCN5CCC[C@@H](CN3C1=O)[C@@H]45)C2=O (some centres unmarked) [GJD 18]
[8]
  inhibition at 20 µM: < 50%

## Cc1cccc2c1C(=O)N(C1CC[C@@H]3[C@H]4CCCN5CCC[C@H](CN3C1=O)[C@@H]45)C2=O (some centres unmarked) [GJD 29]
[8]
  inhibition at 20 µM: > 50%

## O=C1c2ccccc2C(=O)N1C1CC[C@@H]2[C@H]3CCCN4CCC[C@H](CN2C1=O)[C@@H]34 (some centres unmarked) [GJD 28]
[8]
  inhibition at 20 µM: > 50%

## O=C(Nc1cccc2c1CN(C1CC[C@@H]3[C@H]4CCCN5CCC[C@@H](CN3C1=O)[C@@H]45)C2=O)c1ccccc1 (some centres unmarked) [GJD 34]
[1]; Homo sapiens
  IC50: 50 to 100 µM
[2]; Homo sapiens
  IC50: < 50 µM
[3]; Homo sapiens, MIA PaCa-2, 48 h
  IC50: 50 to 100 µM
[4]; Homo sapiens
  IC50: 50 to 100 µM
[5]
  IC50: < 50 µM
[6]; Homo sapiens
  IC50: 50 to 100 µM
[7]; Homo sapiens
  IC50: 50 to 100 µM

## Nc1cccc2c1CN(C1CC[C@@H]3[C@H]4CCCN5CCC[C@@H](CN3C1=O)[C@@H]45)C2=O (some centres unmarked) [GJD 35]
[8]
  inhibition at 20 µM: > 50%

## CC(=O)Nc1cccc2c1CN(C1CC[C@@H]3[C@H]4CCCN5CCC[C@@H](CN3C1=O)[C@@H]45)C2=O (some centres unmarked) [GJD 33]
[8]
  inhibition at 20 µM: > 50%

## O=C1c2cccc(F)c2C(=O)N1C1CC[C@@H]2[C@H]3CCCN4CCC[C@@H](CN2C1=O)[C@@H]34 (some centres unmarked) [GJD 03]
[8]
  inhibition at 20 µM: > 50%
